Calls of active or inactive are those of the source.
Key:
[1] = biological target: Beta-adrenergic receptor kinase 1 (Homo sapiens, UniProt P25098); assay: aptamer displacement from bead-bound GRK2 – biochemical, cherry pick 1, bead flow cytometry, dose response (AID 504500)
[2] = biological target: T1, Heat shock factor protein 1 (Mus musculus, UniProt P38532); assay: enhancement of HSF1-driven luciferase signal – cell-based, NIH3T3, luminescence, dose retest, confirmation (AID 435004); format: functional;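 note: stress induced by proteasome inhibitor MG132 added 30 min after compound; luciferase reporter driven by HSF1 response element in NIH3T3 cells; actives raise luminescence as potentiators of the MG132 stress response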
T1 sequence (P38532 whole entry): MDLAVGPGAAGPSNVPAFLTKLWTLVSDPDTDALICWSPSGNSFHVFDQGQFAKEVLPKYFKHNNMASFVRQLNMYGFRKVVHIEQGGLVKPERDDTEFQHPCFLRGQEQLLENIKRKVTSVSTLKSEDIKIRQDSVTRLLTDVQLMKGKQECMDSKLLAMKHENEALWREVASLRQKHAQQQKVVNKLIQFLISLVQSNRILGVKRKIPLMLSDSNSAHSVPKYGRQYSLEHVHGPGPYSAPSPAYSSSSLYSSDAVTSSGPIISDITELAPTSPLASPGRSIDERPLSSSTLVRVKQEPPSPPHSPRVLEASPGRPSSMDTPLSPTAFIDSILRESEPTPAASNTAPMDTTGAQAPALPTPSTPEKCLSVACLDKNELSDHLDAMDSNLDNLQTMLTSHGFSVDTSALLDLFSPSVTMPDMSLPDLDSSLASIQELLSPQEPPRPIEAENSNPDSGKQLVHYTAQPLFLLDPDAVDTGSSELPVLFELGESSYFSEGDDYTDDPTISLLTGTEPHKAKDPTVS

[3] = biological target: Tyrosine-protein phosphatase non-receptor type 11 (Homo sapiens, UniProt Q06124); assay: PTPN11 enzyme inhibitors – biochemical, selectivity assay for STEP inhibitor project, dose response (AID 602367); format: functional; details: read-out: IC50_Mean
[4] = biological target: Tyrosine-protein phosphatase non-receptor type 5 (Homo sapiens, UniProt P54829); assay: PTPN5 enzyme inhibition – biochemical, fluorescence intensity, uHTS hits, confirmation (AID 602372); format: functional; details: read-out: IC50_Mean
[5] = biological target: Dual specificity protein phosphatase 3 (Homo sapiens, UniProt P51452); assay: VHR phosphatase inhibition, dose response, selectivity assay for STEP inhibitor project, biochemical (AID 602374); format: functional; details: read-out: IC50_Mean
[6] = biological target: T2, RNA-binding protein pos-1 (Caenorhabditis elegans, UniProt G5EF15); assay: disruptors of C. elegans POS-1 RNA interaction – biochemical, fluorescence polarization, dose response (AID 1964);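 note: purified POS-1 fused to maltose binding protein made in E. coli; potency of compounds blocking POS-1 binding to fluorescent RNA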
T2 sequence (G5EF15 whole entry): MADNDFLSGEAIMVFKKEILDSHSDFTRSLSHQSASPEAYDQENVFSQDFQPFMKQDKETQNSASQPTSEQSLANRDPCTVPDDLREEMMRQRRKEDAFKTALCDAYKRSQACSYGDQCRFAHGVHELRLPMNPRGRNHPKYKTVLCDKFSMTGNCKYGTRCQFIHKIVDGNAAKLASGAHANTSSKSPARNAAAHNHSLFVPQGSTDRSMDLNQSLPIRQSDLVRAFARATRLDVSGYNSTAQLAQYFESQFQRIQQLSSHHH

[7] = biological target: T3, Zinc finger protein mex-5 (Caenorhabditis elegans, UniProt Q9XUB2); assay: potency of MEX-5 RNA-binding blockers – biochemical, C. elegans, fluorescence polarization, dose response (AID 1960)
T3 sequence (Q9XUB2 whole entry): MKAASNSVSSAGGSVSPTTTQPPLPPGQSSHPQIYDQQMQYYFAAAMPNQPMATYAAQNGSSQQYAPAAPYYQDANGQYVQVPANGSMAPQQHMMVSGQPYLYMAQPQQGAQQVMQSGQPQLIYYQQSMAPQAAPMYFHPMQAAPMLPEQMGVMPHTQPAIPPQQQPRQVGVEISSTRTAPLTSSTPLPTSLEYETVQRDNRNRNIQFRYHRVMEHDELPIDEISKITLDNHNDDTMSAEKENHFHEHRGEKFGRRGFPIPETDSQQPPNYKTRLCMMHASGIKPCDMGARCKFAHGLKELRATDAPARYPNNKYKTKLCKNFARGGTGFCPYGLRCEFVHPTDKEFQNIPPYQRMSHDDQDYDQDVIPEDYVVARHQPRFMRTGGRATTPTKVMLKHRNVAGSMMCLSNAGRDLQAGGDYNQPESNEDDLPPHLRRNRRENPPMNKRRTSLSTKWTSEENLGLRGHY

[8] = biological target: T4, Endoribonuclease toxin MazF (Escherichia coli K-12, UniProt P0AE70); assay: activation of MazEF endoribonuclease cleavage – biochemical, fluorescence, single-stranded RNA substrate, uHTS hits, dose response (AID 588481); format: functional
[9] = biological target: T4, Endoribonuclease toxin MazF; assay: substrate-only fluorescence increase artefacts – biochemical, single-stranded RNase substrate, counter-screen for MazEF activator project, dose response (AID 588502); format: functional
[10] = NIH-3T3 fibroblast cytotoxicity, dose response, cytotoxicity control, cell-based, fluorescence, Alamar Blue, secondary assay (AID 2327); format: functional;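 note: NIH-3T3 mouse fibroblasts cultured with fluconazole at 8 µg/mL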
BJ [11] = assay: BJ-TERT fibroblast viability loss – cell-based, RAS-independent, luminescence, dose response (AID 1933); format: functional; details: Homo sapiens
cells [12] = format: functional, cell-based
BJ [13] = assay: cells; format: functional, cell-based; details: Homo sapiens
[14] = fluconazole-exposed Candida albicans growth modulators – fluorescence, retest, confirmation (AID 2467); format: functional, cell-based
cells [15] = format: functional, cell-based; remark: listed apart in the source
[16] = biological target: Serine/threonine-protein phosphatase (Candida dubliniensis (strain CD36 / CBS 7987 / NCPF 3949 / NRRLY-17841) (Yeast), UniProt B9W6M3); assay: blockers of CaCl2-induced CDRE-lacZ signaling – S. cerevisiae, luminescence, secondary, dose response (AID 2388); format: functional, cell-based;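 note: yeast reporter cells carrying a calcineurin-responsive lacZ construct stimulated with calcium chloride; luminescent beta-galactosidase reporter signal in whole cells rather than isolated phosphatase activity; potency for inhibition where a drop in reporter signal means calcineurin blockade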
BJ [17] = assay: BJ-TERT-LT-ST fibroblast viability loss – cell-based, RAS-independent, luminescence, dose response (AID 1935); format: functional; details: Homo sapiens;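 note: BJ fibroblasts immortalized with TERT plus LT and ST oncogenes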
[18] = DRD fibroblast viability loss – cell-based, non-viral oncogenic, luminescence, dose response (AID 1934); format: functional; details: Homo sapiens
Exodeoxyribonuclease V = Exodeoxyribonuclease V (Escherichia coli (strain K12), UniProt P04993+P07648+P08394); assay: RecBCD inhibition via phage-restricted bacterial growth – absorbance, V66 E. coli, mutant T4 phage, counter-screen for AddAB inhibitor project, dose response (AID 492957); format: functional, cell-based, Escherichia coli str. K-12 substr. MG1655
[19] = Counterscreen for AddAB inhibitors: absorbance-based bacterial cell-based high throughput dose response assay for inhibitors of bacterial viability. [Related pubchem assays (depositor defined):AID435030, AID449728, AID449731, AID488942, AID488955, AID488956]; format: functional
HEK293 = assay: EBV LMP1 TES2 canonical NF-kB signalling blockers – cell-based, HEK293, luciferase, cherry-pick, dose response (AID 588343); format: functional, Homo sapiens; details: Homo sapiens, HEK293
[20] = biological target: T5, Latent membrane protein 1 (Human herpesvirus 4 (strain B95-8), UniProt P03230); assay: LMP1 TES1 pathway selectivity over dsRED control – imaging, HEK293T, dual-color eGFP/dsRED, cherry-picks, selectivity assay for LMP1 NF-kB inhibitor project, dose response (AID 588398); format: functional, cell-based
T5 sequence (P03230 whole entry): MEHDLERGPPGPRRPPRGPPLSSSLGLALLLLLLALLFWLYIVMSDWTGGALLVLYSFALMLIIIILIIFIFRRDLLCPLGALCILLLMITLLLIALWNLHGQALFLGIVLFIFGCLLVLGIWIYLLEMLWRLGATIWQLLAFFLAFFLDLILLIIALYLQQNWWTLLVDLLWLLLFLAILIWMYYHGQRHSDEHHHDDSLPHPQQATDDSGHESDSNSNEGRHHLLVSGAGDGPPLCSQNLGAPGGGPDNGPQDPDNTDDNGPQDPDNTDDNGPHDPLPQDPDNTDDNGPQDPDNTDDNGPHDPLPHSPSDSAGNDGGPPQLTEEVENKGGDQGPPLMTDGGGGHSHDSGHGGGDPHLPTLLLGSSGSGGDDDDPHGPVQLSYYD

INS1 = assay: INS-1E survival protection against cytokine death – cell-based, luminescence, retest, dose response (AID 449756); format: functional; details: Rattus norvegicus;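 note: cell death triggered by IL-1 beta plus TNF-alpha plus IFN-gamma mixture; protective hits raise ATP signal compared with cytokine alone wells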
[21] = biological target: ATP-dependent molecular chaperone HSP82 (Candida albicans (strain WO-1) (Yeast), UniProt C4YTQ8); assay: steroid-induced GRE reporter decrease in yeast – S. cerevisiae, luminescence, Hsp90 inhibitor project, dose response (AID 2400); format: functional, cell-based;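 note: beta-galactosidase luminescence from glucocorticoid response element reporter as proxy for Hsp90 function; inhibitor potency where signal loss means Hsp90 inhibition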
[22] = reduction of Shn3 3'UTR-driven luciferase in osteoblasts – cell-based, Clone20 osteoblasts, firefly luciferase, cherry-picked, dose response (AID 624132); format: functional;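 note: firefly luciferase luminescence from reporter carrying the Shn3 3'UTR in osteoblasts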
[23] = loss of viability in HepG2 cells – cell-based, CellTiter-Glo, cherry-picked, cytotoxicity control for Shn3 inhibitor project, dose response (AID 624134); format: functional
[24] = non-specific 3'UTR reporter inhibition in Clone20-Shn3RL – cell-based, Renilla luciferase, cherry-picked, counter-screen for Shn3 inhibitor project, dose response (AID 624133); format: functional
Candida albicans [25] = assay: fluconazole-resistant Candida strain growth inhibitors – CaCi-8 strain, dry powder, set 4, dose response (AID 488950); format: functional, organism-based
Candida albicans [26] = assay: C. albicans growth inhibition with fluconazole – CaCi-2 strain, Alamar Blue, dry powder, set 4, dose response (AID 488943); format: functional, organism-based
Candida albicans [27] = assay: resistant Candida growth with fluconazole co-treatment – CaCi-8 strain, Alamar Blue, dry powder, set 2, dose response (AID 488909); format: functional, organism-based
Hexokinase-1 = Hexokinase-1 (Homo sapiens, UniProt P19367); assay: SAR analysis of small molecule inhibitors of hexokinase domain containing I (HKDC1) in the hexokinase 1 selectivity assay. [Related pubchem assays (depositor defined):AID493160, AID493190]; format: functional
Hexokinase HKDC1 = biological target: T6, Hexokinase HKDC1 (Homo sapiens, UniProt Q2TB90); assay: SAR analysis of small molecule inhibitors of hexokinase domain containing I (HKDC1). [Related pubchem assays (depositor defined):AID493160, AID493190]; format: functional
T6 sequence (Q2TB90 whole entry): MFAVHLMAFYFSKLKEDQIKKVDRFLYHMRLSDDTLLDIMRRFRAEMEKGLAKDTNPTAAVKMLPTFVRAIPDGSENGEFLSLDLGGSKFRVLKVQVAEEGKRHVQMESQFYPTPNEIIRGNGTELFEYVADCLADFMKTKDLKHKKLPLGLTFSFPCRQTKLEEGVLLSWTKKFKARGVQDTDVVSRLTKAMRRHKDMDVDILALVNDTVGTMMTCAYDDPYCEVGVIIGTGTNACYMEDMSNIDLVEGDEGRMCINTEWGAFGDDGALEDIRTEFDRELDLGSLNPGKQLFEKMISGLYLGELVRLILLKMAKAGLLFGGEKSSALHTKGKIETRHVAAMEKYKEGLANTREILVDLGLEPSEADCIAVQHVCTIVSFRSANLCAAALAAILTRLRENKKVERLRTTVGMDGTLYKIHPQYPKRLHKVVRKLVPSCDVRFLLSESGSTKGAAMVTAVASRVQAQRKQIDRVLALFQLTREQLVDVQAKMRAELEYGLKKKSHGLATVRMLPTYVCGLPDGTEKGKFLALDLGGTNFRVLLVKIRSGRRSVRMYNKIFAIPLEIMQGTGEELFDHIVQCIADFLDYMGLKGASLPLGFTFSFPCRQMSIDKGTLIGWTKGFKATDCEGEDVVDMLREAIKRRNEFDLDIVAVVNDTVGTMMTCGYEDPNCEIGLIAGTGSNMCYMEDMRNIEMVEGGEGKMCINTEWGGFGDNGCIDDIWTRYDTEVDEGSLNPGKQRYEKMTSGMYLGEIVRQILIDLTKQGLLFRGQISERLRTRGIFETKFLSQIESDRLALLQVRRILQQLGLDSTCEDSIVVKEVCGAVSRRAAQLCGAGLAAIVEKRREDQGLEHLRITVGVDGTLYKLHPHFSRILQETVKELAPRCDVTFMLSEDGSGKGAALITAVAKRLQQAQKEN

T4 sequence (P0AE70 whole entry): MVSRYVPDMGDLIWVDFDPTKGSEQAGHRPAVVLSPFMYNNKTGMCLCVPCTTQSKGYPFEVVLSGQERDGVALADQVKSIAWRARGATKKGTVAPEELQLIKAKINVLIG
Chain of Dual specificity protein phosphatase 3 (P51452 whole entry, the tested form may be a part): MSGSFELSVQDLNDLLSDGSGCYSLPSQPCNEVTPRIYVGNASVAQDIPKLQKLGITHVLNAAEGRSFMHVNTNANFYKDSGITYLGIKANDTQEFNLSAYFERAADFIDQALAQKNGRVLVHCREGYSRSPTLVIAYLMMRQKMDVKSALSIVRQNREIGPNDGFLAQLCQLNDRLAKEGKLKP
Chain of Serine/threonine-protein phosphatase (B9W6M3 whole entry): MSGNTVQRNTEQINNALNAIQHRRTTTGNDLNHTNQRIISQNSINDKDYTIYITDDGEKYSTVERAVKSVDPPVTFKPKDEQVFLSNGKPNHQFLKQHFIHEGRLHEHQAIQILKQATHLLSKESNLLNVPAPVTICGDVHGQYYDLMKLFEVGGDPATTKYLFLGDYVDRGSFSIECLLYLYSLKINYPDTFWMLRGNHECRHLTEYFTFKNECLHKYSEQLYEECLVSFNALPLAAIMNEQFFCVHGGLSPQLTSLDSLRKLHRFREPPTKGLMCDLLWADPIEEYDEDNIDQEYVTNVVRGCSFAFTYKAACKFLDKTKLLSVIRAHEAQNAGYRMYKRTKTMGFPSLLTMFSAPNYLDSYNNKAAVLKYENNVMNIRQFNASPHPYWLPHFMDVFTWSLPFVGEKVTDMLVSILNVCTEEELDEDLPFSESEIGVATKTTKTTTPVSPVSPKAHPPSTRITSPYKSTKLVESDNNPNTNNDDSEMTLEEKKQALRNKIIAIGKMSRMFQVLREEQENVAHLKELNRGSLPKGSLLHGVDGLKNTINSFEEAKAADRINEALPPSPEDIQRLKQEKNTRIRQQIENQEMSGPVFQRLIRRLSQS
Chain of Tyrosine-protein phosphatase non-receptor type 11 (Q06124 whole entry): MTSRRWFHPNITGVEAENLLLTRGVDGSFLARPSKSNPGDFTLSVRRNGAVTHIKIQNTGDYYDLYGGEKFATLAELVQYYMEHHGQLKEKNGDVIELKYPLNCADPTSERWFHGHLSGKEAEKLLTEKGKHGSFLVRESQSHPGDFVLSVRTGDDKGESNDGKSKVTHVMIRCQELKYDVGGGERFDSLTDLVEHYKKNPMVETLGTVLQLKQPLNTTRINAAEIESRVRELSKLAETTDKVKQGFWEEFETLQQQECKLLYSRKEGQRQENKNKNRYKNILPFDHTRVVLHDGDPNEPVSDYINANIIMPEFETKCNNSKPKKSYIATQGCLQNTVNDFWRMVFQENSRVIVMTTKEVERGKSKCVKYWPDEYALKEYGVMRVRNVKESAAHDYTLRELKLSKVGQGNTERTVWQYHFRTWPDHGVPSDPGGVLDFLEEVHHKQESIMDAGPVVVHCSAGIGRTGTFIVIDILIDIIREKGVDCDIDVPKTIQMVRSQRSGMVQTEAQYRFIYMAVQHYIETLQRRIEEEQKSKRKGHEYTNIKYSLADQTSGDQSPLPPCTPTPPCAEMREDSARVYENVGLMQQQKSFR
Chain of Exodeoxyribonuclease V (P04993 whole entry): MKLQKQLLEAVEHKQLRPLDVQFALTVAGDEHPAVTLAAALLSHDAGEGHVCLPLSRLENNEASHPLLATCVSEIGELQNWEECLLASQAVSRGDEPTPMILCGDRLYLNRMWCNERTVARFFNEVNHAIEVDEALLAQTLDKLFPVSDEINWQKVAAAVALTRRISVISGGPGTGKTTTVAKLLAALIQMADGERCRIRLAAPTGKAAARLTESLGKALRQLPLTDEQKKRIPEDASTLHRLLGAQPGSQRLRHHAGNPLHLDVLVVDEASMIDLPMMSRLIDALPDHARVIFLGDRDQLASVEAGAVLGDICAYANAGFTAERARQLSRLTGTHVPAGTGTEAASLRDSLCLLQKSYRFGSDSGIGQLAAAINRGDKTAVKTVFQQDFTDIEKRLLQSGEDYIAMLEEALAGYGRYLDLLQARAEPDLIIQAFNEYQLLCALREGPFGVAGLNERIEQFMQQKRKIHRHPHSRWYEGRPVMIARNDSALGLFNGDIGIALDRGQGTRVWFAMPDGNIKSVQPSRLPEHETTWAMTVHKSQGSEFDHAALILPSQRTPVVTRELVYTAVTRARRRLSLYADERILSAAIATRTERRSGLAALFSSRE
Chain of Exodeoxyribonuclease V (P07648 whole entry): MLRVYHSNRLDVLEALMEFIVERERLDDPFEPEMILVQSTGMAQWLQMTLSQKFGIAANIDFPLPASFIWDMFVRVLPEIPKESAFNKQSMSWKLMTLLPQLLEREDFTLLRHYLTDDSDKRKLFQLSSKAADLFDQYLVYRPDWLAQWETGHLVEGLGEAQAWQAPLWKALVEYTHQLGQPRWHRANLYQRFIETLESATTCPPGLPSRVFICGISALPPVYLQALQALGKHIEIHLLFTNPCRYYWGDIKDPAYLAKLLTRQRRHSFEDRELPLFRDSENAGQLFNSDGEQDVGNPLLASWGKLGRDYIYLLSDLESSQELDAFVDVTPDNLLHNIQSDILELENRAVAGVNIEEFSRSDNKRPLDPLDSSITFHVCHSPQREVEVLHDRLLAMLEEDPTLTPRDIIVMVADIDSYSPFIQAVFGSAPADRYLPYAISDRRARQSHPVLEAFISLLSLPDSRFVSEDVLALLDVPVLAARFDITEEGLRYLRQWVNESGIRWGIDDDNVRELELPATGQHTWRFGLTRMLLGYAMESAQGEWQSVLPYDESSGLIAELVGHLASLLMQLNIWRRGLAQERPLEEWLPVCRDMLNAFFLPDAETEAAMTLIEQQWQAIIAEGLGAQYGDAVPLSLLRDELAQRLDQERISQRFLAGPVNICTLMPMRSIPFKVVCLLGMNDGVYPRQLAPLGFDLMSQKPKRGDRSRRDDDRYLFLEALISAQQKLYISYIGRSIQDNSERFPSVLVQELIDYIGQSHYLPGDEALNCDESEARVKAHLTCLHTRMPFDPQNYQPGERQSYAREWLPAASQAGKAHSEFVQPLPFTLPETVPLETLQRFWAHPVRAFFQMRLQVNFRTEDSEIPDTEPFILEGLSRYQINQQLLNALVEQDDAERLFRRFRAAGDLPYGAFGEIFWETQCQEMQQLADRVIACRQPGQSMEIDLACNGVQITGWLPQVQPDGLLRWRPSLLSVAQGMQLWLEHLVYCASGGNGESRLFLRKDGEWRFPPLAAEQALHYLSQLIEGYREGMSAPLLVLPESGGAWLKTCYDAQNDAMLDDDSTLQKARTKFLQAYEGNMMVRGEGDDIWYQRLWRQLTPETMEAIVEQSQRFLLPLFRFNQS
Chain of Exodeoxyribonuclease V (P08394 whole entry): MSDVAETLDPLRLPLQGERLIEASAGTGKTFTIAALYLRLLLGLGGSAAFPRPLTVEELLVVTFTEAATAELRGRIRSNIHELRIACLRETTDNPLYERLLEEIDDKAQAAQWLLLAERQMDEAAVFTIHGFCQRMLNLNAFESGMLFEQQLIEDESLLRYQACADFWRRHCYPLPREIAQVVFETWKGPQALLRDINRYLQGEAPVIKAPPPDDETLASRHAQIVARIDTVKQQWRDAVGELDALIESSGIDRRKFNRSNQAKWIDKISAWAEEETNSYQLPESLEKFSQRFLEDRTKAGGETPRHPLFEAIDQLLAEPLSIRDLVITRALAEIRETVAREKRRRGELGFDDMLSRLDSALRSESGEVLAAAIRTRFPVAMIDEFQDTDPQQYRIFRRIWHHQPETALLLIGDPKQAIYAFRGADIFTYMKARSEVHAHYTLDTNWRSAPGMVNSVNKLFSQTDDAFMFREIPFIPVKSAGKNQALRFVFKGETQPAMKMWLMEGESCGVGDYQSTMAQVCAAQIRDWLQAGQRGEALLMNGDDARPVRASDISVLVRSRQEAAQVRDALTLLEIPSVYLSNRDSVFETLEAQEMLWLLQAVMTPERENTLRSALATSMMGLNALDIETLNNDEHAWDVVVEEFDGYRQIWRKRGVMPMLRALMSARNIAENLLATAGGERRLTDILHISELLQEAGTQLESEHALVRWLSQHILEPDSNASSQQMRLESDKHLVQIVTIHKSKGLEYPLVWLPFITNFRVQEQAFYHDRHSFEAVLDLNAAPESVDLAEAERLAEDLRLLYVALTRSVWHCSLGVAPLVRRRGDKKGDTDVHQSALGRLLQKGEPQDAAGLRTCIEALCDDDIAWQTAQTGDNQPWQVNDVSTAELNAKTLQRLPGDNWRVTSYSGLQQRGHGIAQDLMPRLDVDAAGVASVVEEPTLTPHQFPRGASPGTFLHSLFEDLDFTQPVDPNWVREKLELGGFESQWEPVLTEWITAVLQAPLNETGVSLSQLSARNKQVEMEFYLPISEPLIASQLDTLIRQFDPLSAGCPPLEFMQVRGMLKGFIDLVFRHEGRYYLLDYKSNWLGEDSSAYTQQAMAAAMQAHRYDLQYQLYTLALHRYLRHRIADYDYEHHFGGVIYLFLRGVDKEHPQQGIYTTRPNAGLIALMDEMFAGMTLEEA
Chain of Tyrosine-protein phosphatase non-receptor type 5 (P54829 whole entry): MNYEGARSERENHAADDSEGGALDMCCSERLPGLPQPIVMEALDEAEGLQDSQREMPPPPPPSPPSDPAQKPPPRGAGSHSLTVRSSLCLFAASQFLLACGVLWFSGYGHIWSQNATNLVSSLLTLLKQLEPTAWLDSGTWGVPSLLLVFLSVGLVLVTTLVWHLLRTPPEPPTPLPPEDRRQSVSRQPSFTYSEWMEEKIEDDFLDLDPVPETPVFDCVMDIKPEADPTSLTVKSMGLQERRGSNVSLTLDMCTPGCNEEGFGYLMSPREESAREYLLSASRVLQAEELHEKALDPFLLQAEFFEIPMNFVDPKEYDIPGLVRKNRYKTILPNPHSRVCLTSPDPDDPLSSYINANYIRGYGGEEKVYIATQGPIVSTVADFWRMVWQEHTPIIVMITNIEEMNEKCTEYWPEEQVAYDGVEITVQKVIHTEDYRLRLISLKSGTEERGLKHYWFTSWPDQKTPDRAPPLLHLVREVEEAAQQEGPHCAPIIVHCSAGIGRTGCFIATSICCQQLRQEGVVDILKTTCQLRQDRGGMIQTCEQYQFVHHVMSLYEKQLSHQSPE

CCOC(=O)CC(NS(=O)(=O)c1ccc2ncc(C(=O)O)c(O)c2c1)c1ccc(OCC)c(OC)c1 (configuration not stated)
EC50 [1]: 3.62 µM (active)
EC50 [2]: > 260 µM (inactive)
IC50 [3]: 1.53 µM (active)
IC50 [4]: 46.3 µM (inactive)
IC50 [5]: 3 µM (active)

CC(=O)N1CCN(c2ccc(N/C=C3\C(=O)NC(=O)N(Cc4ccccc4)C3=O)cc2)CC1
EC50 [6]: > 300 µM (not active)
EC50 [7]: 83.1 µM (active)
EC50 [8]: > 99 µM (inactive)
EC50 [9]: 19 µM (active)

Oc1cccc(C(Nc2nccs2)c2ccc3cccnc3c2O)c1 (configuration not stated)
EC50 [10]: 20.1 µM (inconclusive)
EC50 (BJ [11]): 9.83 µM (active)
EC50 (cells [12]): 13.2 µM (active)
EC50 (BJ [13]): 8.06 µM (active)
EC50 [14]: 0.796 µM (active)
EC50 (cells [15]): > 350 µM (not active)
EC50 [16]: > 180 µM (inactive)
EC50 (BJ [17]): 6.31 µM (active)
EC50 [18]: 6.12 µM (active)
IC50 (Exodeoxyribonuclease V): > 119 µM (inactive)
IC50 [19]: 107 µM (inactive)
AC50 (HEK293): 14 µM (active)
AC50 [20]: 8.97 µM (active)
AC50 (INS1): 0.95 µM (active)
EC50 [21]: > 160 µM (inactive)
AC50 [22]: 1.67 µM (active)
AC50 [23]: 5.04 µM (active)
AC50 [24]: 1.87 µM (active)

O=C(c1ccccc1Cl)N1CCN(c2ccnc3cc(Cl)ccc23)CC1
AC50 (Candida albicans [25]): 7.36 µM (active)
AC50 (Candida albicans [26]): 4.8 µM (active)
AC50 (Candida albicans [27]): 25.2 µM (active)

O=C(CSc1ncccn1)Nc1cccc(S(=O)(=O)N2CCOCC2)c1
IC50 (Hexokinase-1): > 80 µM (inactive)
IC50 (Hexokinase HKDC1): > 80 µM (inactive)
